Assay results taken from PMC6271609, “Secondary Metabolites from Vietnamese Marine Invertebrates with Activity against Trypanosoma brucei and T. cruzi” (Molecules, 2014).
Entries after “also recorded” stand apart in the source; their conditions may differ. Where two headings read alike, the source gives them in different places.

Tests used:
[1] = Cytotoxicity assay, resazurin, HEK293T; assay type: cell-based, human; details: human
Procedure: (§1) HEK293T and HepG2 cells were cultured at 37 °C with 5% CO2 in Dulbecco’s modified eagle medium containing 10% FBS. Both cell types were plated individually in 384 well plates for testing the natural compounds at 3-fold dilution from 100 µM in 10-points concentration and incubated for 3 days. To determine viability, 10.0 µL of a 280 µM solution of resazurin sodium salt in water was added to the cells in the assay plate for at least 5 h (final concentration, 40.0 µM of resazurin) and resazurin reduction was measured with a Victor 3^TM fluorimeter (PerkinElmer) at 530 nmEx/590 nmEm.
(§2) The acquired images from the high content intracellular T. cruzi screening were subjected to in-house software to quantify cell numbers, parasite numbers, and infection ratio as previously described. Each compound’s activity was normalized based on values of drug positive and negative control (120 nM of pentamidine for T. brucei and T. cruzi assays, 83.0 µM of chlorpromazine for cytotoxicity, and DMSO as 0% drug activity for negative control). Dose response curves were fitted by sigmoidal dose-response with variable slope, equation described as Y = Bottom + (Top − Bottom)/(1 + 10^(LogEC5 − X) − HillSlpe) using GraphPad Prism 6 Software (GraphPad Software, Suite 230 La Jolla, CA, USA).

[2] = Cytotoxicity assay, resazurin, HepG2; assay type: cell-based, human; details: human
Procedure: as §1, §2

[3] = tested on: T. brucei strain 427 bloodstream forms; assay: Anti-trypanosomal activity on T. brucei, resazurin dose response; assay type: cell-based, Trypanosoma brucei; details: for SI (Selectivity index): relative to HEK293T and HepG2 cells vs T. brucei
Procedure: T. brucei strain 427 bloodstream forms were cultivated at 37 °C with 5% CO2 in HMI-9 medium supplemented with 10% FBS. Cultivated parasites (2,500) were seeded in 384 well plates with the natural compounds and incubated for 3 days. After the incubation, the parasites were exposed to 120 µM of resazurin sodium salt (10.0 µL of a 720 µM solution in water) for 5 h. Then, the parasites were fixed with 4% PFA and the assay plates were read by Victor 3™ (PerkinElmer, Waltham, MA, USA) at 530 nmEx/590 nmEm. Pentamidine was used as a reference drug and DMSO 0.5% was used as a drug-negative control.
as §2

HEK293T cells = assay: Cytotoxicity assay, resazurin, HEK293T; assay type: cell-based, human; details: pure compounds up to 100 µM
Procedure: as §1, §2

HepG2 cells = assay: Cytotoxicity assay, resazurin, HepG2; assay type: cell-based, human; details: pure compounds up to 100 µM
Procedure: as §1, §2

[4] = tested on: intracellular amastigotes of T. cruzi Y strain; assay: Anti-trypanosomal activity on intracellular T. cruzi Y strain, high content image assay; assay type: cell-based, Trypanosoma cruzi; details: for activity against intracellular T. cruzi (in words): 50.0 µM; for decrease of parasite survival / reduction of parasites growth compared to the DMSO control: 50.0 μM, 48 h, U2OS host cells
Procedure: (§3) The assay for activity against T. cruzi Y strain was performed as previously described. Briefly, T. cruzi parasites were maintained in form of Tissue Culture Trypomastigote (TCT) by circulation in LLC-MK2 cell line (CCL-7, ATTC, Manassas, VA, USA). Seven days after the infection, the supernatant containing TCT parasites was collected and used to reinfect new cultures of LLC-MK2. The U2OS human cell (HTB-96, ATCC), cultivated in DMEM-high glucose media supplemented with 10% heat inactivated FBS, was used for the in vitro assay preparation. The cells were infected with the TCT form of T. cruzi. A homogeneous mixture of parasites and cells in DMEM-low glucose media, supplemented with 2% heat inactivated FBS, and was seeded into 384-well plates at 50.0 µL/well. The test compounds (final concentration of 50.0 µM) were added in 10.0 µL of 6% DMSO (final concentration, 1% DMSO) and the cells were incubated for 48 h at 37 °C, 5% CO2. After the incubation, the cells and parasites were fixed with 4% PFA and stained with 5.0 µM Draq5. Fluorescent images were acquired from each assay well using an Operetta microscope (Perkin Elmer).
as §2

U2OS human cell = assay: Host cell number in the T. cruzi high content image assay; assay type: cell-based; details: 50.0 μM, 48 h, U2OS infected with T. cruzi
Procedure: as §3
The acquired images from the high content intracellular T. cruzi screening were subjected to in-house software to quantify cell numbers, parasite numbers, and infection ratio as previously described. […]

T. brucei rhodesiense = tested on: T. brucei rhodesiense; parameters: method as in PMID 21157686; details: cited from earlier work
Plasmodium falciparum = tested on: Plasmodium falciparum; parameters: method as in PMID 21157686; details: cited from earlier work
[5] = HEK293T cells, HEK293T, 3 days, highest concentration 100 µM, read-out: Cytotoxicity CC50 Values HEK293T
[6] = HepG2 cells, HepG2, 3 days, highest concentration 100 µM, read-out: Cytotoxicity CC50 Values HepG2
[7] = Trypanosoma brucei, 72 h, bloodstream forms, 3 days incubation, resazurin, read-out: T. brucei EC50 Values

Compound: CC(C)[C@@H](C)CC[C@@H](C)[C@H]1CC[C@H]2[C@@H]3CCC4=CC(=O)CC[C@]4(C)[C@H]3CC[C@]12C [Compound 2, (24S)-ergost-4-ene-3-one]
- CC50 at 3 days [1, 5]: > 100 µM
- CC50 at 3 days [2, 6]: > 100 µM
- EC50 [3, 7]: 5.47 ± 0.27 µM
- SI (Selectivity index) [3]: >18.3

Compound: CC(C)CCC[C@@H](C)[C@H]1CC[C@@H]2[C@]1(C)CC[C@@H]1[C@@]3(C)CC[C@H](O)C[C@@H]3[C@@H](C=O)[C@]12O [Compound 3, astropectenol A]
- CC50 at 3 days [1, 5]: > 100 µM
- CC50 at 3 days [2, 6]: > 100 µM
- EC50 [3, 7]: 1.17 ± 0.14 µM
- EC50 ([3]; bloodstream forms, 3 days incubation, resazurin, read-out: T. brucei EC50 Values): 1.57 ± 0.14 µM
- SI (Selectivity index) [3]: >63.7

Compound: C=C1CO[C@H]2/C=C(\C)CC[C@@H]3O[C@]3(C)CC/C=C(\C)CC[C@@]12O [Compound 1, laevigatol B]
- cytotoxicity on HEK293T (in words) (HEK293T cells): did not display cytotoxicity
- CC50 at 3 days [1, 5]: > 100 µM
- CC50 at 3 days [2, 6]: > 100 µM
- cytotoxicity on HepG2 (in words) (HepG2 cells): did not display cytotoxicity
- activity against intracellular T. cruzi (in words) [4]: significant activity; also recorded: significant inhibitory effects; also recorded: active
- decrease of parasite survival / reduction of parasites growth compared to the DMSO control [4]: 84.8%
- EC50 [3, 7]: 5.34 ± 0.47 µM
- EC50 ([3]; Trypanosoma brucei, bloodstream forms, resazurin, read-out: T. brucei EC50): 1.69 ± 0.12 µg/mL
- SI (Selectivity index) [3]: >18.7
- reduction of the host cells (U2OS human cell): 33%

Compound: CN(C)CCCN1c2ccccc2Sc2ccc(Cl)cc21 [Chlorpromazine, reference compound]
- CC50 at 3 days [1, 5]: 19.9 ± 3.48 µM
- CC50 at 3 days [2, 6]: 16.5 ± 0.45 µM

Compound: CC(C)CCC[C@@H](C)[C@H]1CC[C@H]2C3=C(CC[C@]12C)[C@@]1(C)CC[C@H](O)C[C@]1(O)[C@H](O)[C@H]3O [Compound 4, cholest-8-ene-3β,5α,6β,7α-tetraol]
- CC50 at 3 days [1]: > 100 µM
- CC50 at 3 days [2]: > 100 µM
- EC50 [3, 7]: 14.6 ± 1.36 µM
- SI (Selectivity index) [3]: >6.8

Compound: CC(C)CCC[C@@H](C)[C@H]1CCC2=C3[C@H](O)C[C@H]4C[C@@H](O)CC[C@]4(C)[C@H]3CC[C@@]21C [Compound 5, 5α-cholest-8(14)-ene-3β,7α-diol]
- cytotoxicity on HEK293T (in words) (HEK293T cells): did not show any cytotoxicity
- CC50 at 3 days ([1]; HEK293T, 3 days, highest concentration 100 µM, read-out: Cytotoxicity CC50 Values HEK293T): > 100 µM
- CC50 at 3 days ([2]; HepG2, 3 days, highest concentration 100 µM, read-out: Cytotoxicity CC50 Values HepG2): > 100 µM
- cytotoxicity on HepG2 (in words) (HepG2 cells): did not show any cytotoxicity
- activity against intracellular T. cruzi (in words) [4]: significant activity; also recorded: significant inhibitory effects; also recorded: active
- decrease of parasite survival / reduction of parasites growth compared to the DMSO control [4]: 97.1%
- EC50 ([3]; Trypanosoma brucei, 72 h, read-out: T. brucei EC50 Values): > 30 µM
- activity against T. brucei (in words) ([3]; bloodstream forms): inactive
- reduction of the host cells (U2OS human cell): not significantly reduced

Compound: N=C(N)c1ccc(OCCCCCOc2ccc(C(=N)N)cc2)cc1 [Pentamidine, reference compound]
- CC50 at 3 days [1, 5]: < 0.4 µM
- CC50 at 3 days [2, 6]: < 0.4 µM
- EC50 [3, 7]: 0.015 ± 0.003 µM
- SI (Selectivity index) [3]: <26.7
- SI (Selectivity index) ([3]; listed as pentamidine): 26.7

Compound: C/C1=C\CC/C(C)=C/C[C@](O)(C(C)C)CC/C(C)=C/CC1 [serratol]
- activity against T. brucei rhodesiense (in words) (T. brucei rhodesiense): active
- activity against Plasmodium falciparum (in words) (Plasmodium falciparum): active
